This is an account of results in patent publication US11331375B2, “Compositions and methods for regulating leukocyte adhesion” (University of Virginia Patent Foundation, priority 2015, dated 2022).

For test [1], the system named is THP-1 monocyte adhesion to HUVEC. Put plainly: Static adhesion assay, THP-1 monocytes on HUVEC. Format: cell-based, human. The settings on record: HUVEC treated with inhibitor prior to TNFα stimulation. The procedure:
HUVECs were seeded on gelatin-coated glass coverslips in 6-well plates and grown to confluence. On the day of the experiment, cells were washed 2× with 1× PBS and incubated for 30 minutes in basal EGM supplemented with 1% BSA in the presence or absence of pharmacological inhibitors. During this incubation period, human THP-1 monocytes were loaded with Calcein-AM (Invitrogen; 5 μg/mL) for 30 minutes at 37° C. Cells were then pelleted by brief centrifugation and excess calcein was removed by washing THP-1 cells 3 times in 1× PBS. Next, HUVECs were stimulated with TNFα (10 ng/mL) for 30 minutes. Following EC activation, calcein-loaded THP-1 monocytes were added to EC monolayers and incubated for 20 minutes at 37° C. to allow THP-1 to contact ECs. Monolayers were then washed 3× with 1× PBS and fixed in ice cold 4% PFA. Following fixation, coverslips were removed from the 6-well plates and mounted on glass microscope slides with Prolong Gold anti-fade mountant with DAPI (Life Technologies). Fluorescent micrographs were obtained at 10×magnification and the number of adherent THP-1 monocytes/ECs was quantified in 5 randomized regions/slide. Data are expressed as mean±SEM (n=3 independent experiments).

The target in a further test is pannexin1 channel (Homo sapiens, UniProt Q96RD7). The settings on record: cited from earlier work.
pannexin1 channel, sequence (Q96RD7 whole entry, the tested form may be a part): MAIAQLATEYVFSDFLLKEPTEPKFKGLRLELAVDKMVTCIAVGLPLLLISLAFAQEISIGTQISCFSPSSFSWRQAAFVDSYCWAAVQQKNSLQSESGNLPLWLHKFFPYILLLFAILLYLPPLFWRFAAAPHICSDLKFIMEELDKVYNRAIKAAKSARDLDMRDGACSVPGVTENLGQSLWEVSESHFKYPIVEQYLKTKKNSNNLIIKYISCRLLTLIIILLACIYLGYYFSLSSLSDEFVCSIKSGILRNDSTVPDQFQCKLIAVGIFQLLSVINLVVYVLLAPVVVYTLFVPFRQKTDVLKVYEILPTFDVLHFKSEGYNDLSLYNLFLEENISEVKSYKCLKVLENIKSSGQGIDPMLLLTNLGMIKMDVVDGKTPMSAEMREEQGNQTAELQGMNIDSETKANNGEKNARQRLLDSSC
In a further test the test system is C57B1/6J mice. The test is described as follows: Intravital microscopy of cremaster muscle for leukocyte adhesion and emigration. In kind it is in vivo, mouse. Particulars: control C57B1/6J mice, tamoxifen 10 consecutive days. The protocol: Mice were prepared for intravital microscopy of the cremaster muscle as described previously^25. Briefly, mice were anesthetized with ketamine hydrochloride (150 mg/kg, IP) and xylazine (7.5 mg/kg, IP). The cremaster was isolated, laid over a viewing pedestal, superfused with bicarbonate-buffered saline. After 30 min equilibration, a venule with a wall shear rate (WSR) of ≥500/s, diameter between 20 μm and 40 μm, and the least number of adherent and emigrated leukocytes was chosen for further study. A 1 min baseline recording was made, after which superfusion was stopped, and 50 μl TNFα (1.7 ng/ml in 0.1% BSA) or vehicle control was added under a saran wrap cover every 30 min. 1 min recordings were made just prior to each addition, for 3 hrs. The TNFα was initially reconstituted in PBS at 3.4 ng/ml and 150 μl aliquots were frozen. An aliquot was mixed 1:1 with BBS containing 0.2% BSA at the time of the experiment. Leukocyte adhesion and emigration were determined by off-line analysis. Leukocytes were considered adherent if they stopped for at least 30 s (expressed as #/mm^2 vessel wall), and emigrated leukocytes were leukocytes identified in the interstitium (expressed as #cells/mm^2 tissue). Data are expressed as mean±SEM (n=6-7 independent animals/group).

For a further test, the system named is HUVEC. Put plainly: In vitro ATP release assay (luciferin:luciferase), HUVEC. In kind it is cell-based, human. The settings on record: for effect of inhibitor on TNFα-induced ATP release: antagonist 30 min, WP9QY 10 μM, La3+ 100 μM, BFA 5 μg/mL, RuR 20 μM, PP2/PP3 10 μM, Q-VD-OPh 100 μM; for reduction of TNFα-mediated ATP release: CBX 50 μM, ^10panx1 200 μM. The procedure:
(§1) In vitro Human arterial and venous ECs were seeded in 24-well plates pre-coated with 0.2% gelatin and grown to confluency. On the day of experiment, the media was removed from each well and cells were carefully washed twice with warm serum free basal EC medium supplemented with 1% BSA. Cells were then incubated in 300 μL of fresh basal EC medium supplemented with 1% BSA for 30 minutes at 37° C. to allow degradation of extracellular ATP released due to mechanical stimulation during washes. Endogenous ecto-nucleotidases were inhibited by incubating EC monolayers with 300 μM ARL 67156 (Tocris) for 30 minutes at 37° C. Cells were then stimulated with recombinant human TNFα (R&D Systems). For dose response experiments, ECs were incubated with 0.1, 1, 5, 10, 50, or 100 ng/mL recombinant TNFα for 30 minutes at 37° C. For time-course experiments, ECs were stimulated with 10 ng/mL recombinant TNFα for different time points up to 1 hour. In experiments where pharmacological inhibitors were employed, ECs were incubated with antagonists in parallel with ARL 67156 for 30 minutes. To inhibit TNFR1, ECs were incubated with the peptide antagonist of the receptor WP9QY (10 μM; Anaspec). […] Cx hemichannels were inhibited with lanthanum (La^3+; 100 μM; Sigma) and Panx1 channels were blocked with carbenoxolone (CBX; 50 μM; Sigma) and the inhibitory peptide ^10panx1 (200 μM; Genscript). […] The role of caspase activation was assessed by inhibition with the pan-caspase blocker Q-VD-OPh (100 μM; Sigma). Following stimulation with TNFα or vehicle, 150 μL of the cell supernatant was collected and immediately placed into pre-chilled 1.5 mL Eppendorf tubes on ice. All samples were centrifuged at 10,000×g for 5 minutes and 50 μL of each sample was transferred to a white, opaque 96-well plate. Using a FluoStar Omega luminometer, 50 μL of luciferin:luciferase reagent (ATP bioluminescence assay kit HSII; Roche) was injected into each well and luminescence was recorded following a 5s orbital mix. ATP concentration in each sample was calculated from a standard curve for all experiments. Data are presented as a % change in ATP release from baseline (i.e. unstimulated cells) and expressed as mean±SEM (n=5 independent experiments with triplicate measurements).

Another test has as its system HSaVEC. Put plainly: In vitro ATP release assay (luciferin:luciferase), HSaVEC. Format: cell-based, human. Particulars: for effect of inhibitor on TNFα-induced ATP release: antagonist 30 min, WP9QY 10 μM, BFA 5 μg/mL, RuR 20 μM, PP2/PP3 10 μM; for inhibition of TNFα-mediated ATP release: CBX, ^10panx1. The procedure:
as §1

In test [2] the test system is isolated murine mesenteric venules. The test is described as follows: Ex vivo vascular perfusion ATP release assay, mesenteric venules. Format: cell-based, mouse. The settings on record: WP9QY 10 μM, PP2 10 μM. The protocol:
For isolated blood vessel experiments, 2nd order venules or arterioles were dissected from the mouse mesentery circulation and cannulated on glass micropipettes to access the vessel lumen. […] Vessels were then perfused with MOPS PSS containing 300 μM ARL 67156 +/− pharmacological inhibitors and incubated for an additional 20 minutes prior to perfusion with MOPS PSS containing recombinant murine TNFα (R&D Systems). Aliquots of the lumenal perfusate were collected every 5 minutes for a 25-minute period and the ATP concentration was quantified by bioluminescence as described above. Data are expressed as mean±SEM (n=4 independent experiments).

The test system of another test is Panx1. The test is described as follows: Western blot of Panx1 phosphorylation at Y198 in venous ECs. Format: cell-based, human. The procedure:
(§2) Following stimulation with TNFα (in vitro: 10 ng/mL; ex vivo: 50 ng/mL), confluent endothelial cell monolayers or isolated mesenteric venules were homogenized in ice cold Triton extraction buffer (50 mM Tris-HCL, 150 mM NaCl , 5 mM EDTA, 1% deoxycholate, 1% NP-40 and 1% Triton-X100 in phosphate buffered saline and pH adjusted to 7.4) containing protease and phosphatase inhibitors. Cell/Tissue lysates were incubated with rotation at 4° C. for 20 minutes to solubilize proteins, followed by centrifugation for 5 minutes at 13,000× g to pellet cell debris. Protein concentration was quantified using the BCA method. 15-20 μg of total protein was subjected to SDS gel electrophoresis using 4-12% Bis-Tris gels (Invitrogen) and transferred to nitrocellulose membranes for immunoblotting. Membranes were blocked for 1 hr at room temperature with LiCOR blocking solution, then incubated overnight at 4° C. with primary antibodies against pY416SFKs, (BD Biosciences; 1:1000) pY198Panx1 (Alpha Diagnostic Intl (ADI); 1:1000) and GAPDH (Sigma; 1:10,000) or an antibody against the intracellular loop of Panx1 (Panx1-IL) (ADI; 1:1000) (normalization controls). Membranes were then washed and incubated with LiCOR secondary antibodies (1:10,000) and visualized and quantitated using LiCOR Odyssey. To inhibit SFK activity, EC monolayers were incubated with the SFK inhibitor PP2 (Tocris; 10 μM). […] To show specificity for the phosphorylated form of SFKs and Panx1, cell lysates were incubated with alkaline phosphatase for 1 hour at 37° C. Western blot images have been cropped for presentation. Uncropped Western blots can be found in FIGS. 12-13. Data are expressed as mean±SEM (n=3 independent experiments).
(In general: Immunoblotting shows a protein as a band on a membrane.)

A further test deals with Src Family Kinases (SFK). The test is described as follows: Western blot of SFK activation (pY416SFK) in venous ECs. Format: cell-based, human. Particulars: HUVEC and HSaVEC; PP2/PP3 10 μM. The procedure: as §2
In another test the target is T1, Panx1 channels in HUVEC (Homo sapiens, UniProt Q96RD7).
T1 construct: Primary human umbilical vein endothelial cells (HUVEC) were purchased from Cell Applications; PromoCell 200K-05; C-12231; host or cells: HUVEC, HSaVEC (primary human venous endothelial cells)
T1 sequence (Q96RD7 whole entry): as the sequence (Q96RD7 whole entry, the tested form may be a part) above
Put plainly: YO-PRO-1 dye uptake assay. Particulars: ^10panx1 200 μM, TNFα 10 ng/mL 30 minutes. In kind it is cell-based. The procedure:
HUVECs were cultured on poly-L-lysine coated coverslips and grown to confluence in EGM. Cells were washed three times with 1× PBS and incubated in fresh EGM for 30 minutes prior to stimulation. To stimulate YO-PRO-1 dye uptake, YO-PRO-1 (1 μM) was added to the media and EC monolayers were treated with TNFα at a range of concentrations (0.1 ng/mL-100 ng/mL) for 30 minutes. At the end of the stimulation, cells were washed 3× with 1× PBS and immediately fixed in 4% PFA. Coverslips were then mounted on microscope slides with DAPI ProlongGold mounting agent and visualized on an Olympus IX81 laser scanning confocal microscope. Dye uptake was quantified as the intensity of YO-PRO-1 fluorescence over time using ImageJ software. For time course analysis, YO-PRO-1 was added to the culture media at various time points after TNFα stimulation and incubated to the 30-minute time point. Data are expressed as mean±SEM (n=3 independent experiments).

Take “KYPIVEQYLKYGRKKQRRR (hybrid of human and HIV tat seq.) [IL2/PanX peptide]”: the “effect on TNFα-induced THP-1 monocyte adhesion” value in [1] is “ability to block leukocyte adhesion”. For the same molecule, in the test with pannexin1 channel, the “inhibition of pannexin1 channel (previously shown / known)” value is “potent and specific inhibitor”.
Take `CC/C(=C(\c1ccccc1)c1ccc(OCCN(C)C)cc1)c1ccccc1` [tamoxifen]: in the test with C57B1/6J mice, the “effect on TNFα-induced leukocyte adhesion” value is given as “no effect” and the “effect on TNFα-induced leukocyte emigration” value was “no effect”.
“IL-1β: recombinant human pro-inflammatory cytokine”: the “ATP release on cytokine stimulation” value in the test with HUVEC (HUVEC monolayers) and with HSaVEC (HSaVEC monolayers) was “failed to promote ATP release” each time. Moreover, the “degree of ATP release on co-administration with TNFα vs TNFα alone” value with HUVEC (HUVEC, TNFα 10 ng/mL plus increasing IL-1β) is “did not significantly alter”; in the test on HSaVEC (HSaVEC, TNFα 10 ng/mL plus increasing IL-1β), “did not significantly alter”.
In the case of `CC(C)(C)n1nc(-c2ccc(Cl)cc2)c2c(N)ncnc21` [PP2], the “effect of inhibitor on TNFα-induced ATP release” value (“effect of inhibitor” for short) in the test with HUVEC (HUVEC) is given as “significantly blunted”; in test [2] it was “blunting ATP release”; in the test with HSaVEC (HSaVEC), “significantly blunted”. Moreover, the “effect on Panx1 Y198 phosphorylation induced by c-Src overexpression” value with Panx1 (HUVEC) is “blocked”. The “effect on TNFα-induced Panx1 phosphorylation at Y198” value in the test with Panx1 (HUVEC and HSaVECs, pretreatment with PP2) is reported as “blocked”. The “effect on TNFα-induced Y416 phosphorylation of SFK” value in the test on Src Family Kinases (SFK) is “reduced Y416 phosphorylation to baseline levels”.
Turning to `Nc1ncnc2c1cnn2-c1ccccc1` [PP3], the “effect of inhibitor” value in the test on HUVEC (HUVEC) and in the test with HSaVEC (HSaVEC) was “no significant effect” each time. In addition, the “effect on TNFα-induced Y416 phosphorylation of SFK” value in the test with Src Family Kinases (SFK) was “no effect”.
Consider `CC1(C)[C@@H](OC(=O)CCC(=O)O)CC[C@]2(C)[C@H]3C(=O)C=C4[C@@H]5C[C@@](C)(C(=O)O)CC[C@]5(C)CC[C@@]4(C)[C@]3(C)CC[C@@H]12` [CBX, carbenoxolone], for which the “effect on TNFα-induced THP-1 monocyte adhesion” value in test [1] is reported as “significantly reduced”. Also, the “reduction of TNFα-mediated ATP release” value in the test with HUVEC (HUVEC) was 86.4%. Moreover, the “inhibition of TNFα-mediated ATP release” value in the test on HSaVEC (HSaVEC) stood at 69.7%.
`[La]` [lanthanum]: the “effect of inhibitor” value with HUVEC (HUVEC) is given as “failed to reduce ATP release”.
Turning to Apyrase, the “effect on TNFα-induced THP-1 monocyte adhesion” value in test [1] is “significantly reduced”.
As to WRQAAFVDSY [^10panx1], the “effect on TNFα-induced THP-1 monocyte adhesion” value in [1] was “significantly reduced”. Besides, in the test on HUVEC (HUVEC), the “reduction of TNFα-mediated ATP release” value is 70.9%. In the test with pannexin1 channel, the “inhibition of pannexin1 channel (previously shown / known)” value was “block pannexin-1 gap junctions”. For the same molecule, in the test with Panx1 channels in HUVEC, the “effect on TNFα-induced YO-PRO-1 dye uptake” value is “significantly attenuated”. For the same molecule, the “inhibition of TNFα-mediated ATP release” value with HSaVEC (HSaVEC) amounted to 75.2%.
On to `N.N.N.N.N.N.N.N.N.N.N.N.N.N.[Cl-].[Cl-].[Cl-].[Cl-].[Cl-].[Cl-].[O-2].[O-2].[Ru+3].[Ru+3].[Ru+4]` [ruthenium red], for which the “effect of inhibitor” value in the test on HUVEC (HUVEC) and with HSaVEC (HSaVEC) was “ruled out the involvement” in each case.
Regarding `CC(C)[C@H](NC(=O)c1ccc2ccccc2n1)C(=O)N[C@@H](CC(=O)O)C(=O)COc1c(F)cccc1F` [Q-VD-OPh], the “effect of inhibitor” value with HUVEC (HUVEC) was “lack of inhibition”.
